Where “and” joins values, the source holds several entries; their conditions need not be identical. Equal entries are not always repeated. Where two headings read alike, the source gives them in different places.
What was measured:
forearm skin = experiment: Forearm skin thickness measured by micrometer calipers after topical application; format: in vivo, human; conditions: for % Increase Over (summary of increased skin thickness): 10-35% concentration twice daily on forearm skin, range over 2-13 subjects
Excerpt: Measuring the increase in thickness of the skin was accomplished in accordance with the following procedures. The increased plumpness or skin thickness by topical application of active ingredients of the embodiments is mainly due to increased biosynthesis of dermal components in the skin. The three most important dermal components are glycosaminoglycans (GAGs), collagens and elastic fibers. The increased skin thickness caused by increased biosynthesis of dermal components can be distinguished from that by water retention or edema formation. In the former case, the skin remains thickened for weeks and months after termination of topical application. In the latter case, the increased skin thickness returns to the original skin thickness within days after termination of topical application. • (1) Forearm Skin
The most convenient body area for testing skin thickness is the forearm skin. For example, a test substance in a formulation was topically applied once or twice daily to left or right forearm for 3 to 6 months and the other forearm was untreated or treated with a vehicle control. The skin plumpness or thickness was measured by micrometer calipers as follows. The skin was grasped with a 2×6 cm hinge plate, the internal faces of the hinge were coated with soft cloth to prevent slippage, and manually squeezed to a threshold point when the subject felt tight. Combined skin thickness of two whole-skin layers including thickness of the two hinge leaves was measured with micrometer calipers. Thickness of the two hinge leaves was subtracted to determine the actual thickness of two whole-skin layers. Triplicate measurements on treated site were done and an average number was used for calculation of the skin thickness. […]
Hydroxycarboxylic acids, N-acyl-aldosamines, N-acylamino acids and related compounds at various concentrations were topically applied to forearms of volunteer subjects or patients. As shown in Tables 1-7, the skin plumpness or thickness was increased substantially by the compounds of the present invention. The increased skin thickness was believed to be due to increased biosynthesis of GAGs, collagen and elastic fibers. […]. From the above test results, hydroxycarboxylic acids, N-acyl-aldosamines, N-acylamino acids and related compounds used alone or in combination should be beneficial to plump and pout lips, enhance and firm eyelids, enlarge and augment breasts, elongate and expand penis.
In one of the studies, skin thickness was measured by micrometer calipers as follows: The skin was grasped with a 2×6 cm metal hinge; the internal faces of which were coated with emery cloth to prevent slippage, and manually squeezed to threshold subject discomfort. Combined thickness of two whole-skin layers including thickness of the two hinge leaves was measured with micrometer calipers. Thickness of the two hinge leaves was subtracted to determine the actual thickness of two whole-skin layers. Triplicate measurements on treated sites were conducted and an average number was used for calculation of the skin thickness.

breasts = experiment: Breast enlargement after topical application, clinical evaluation and brassiere cup; format: in vivo, human
Protocol: A test formulation containing a hydroxycarboxylic acid, N-acyl-aldosamine, N-acylamino acid or related compound was topically applied once or twice daily to skin or mucus membrane organs or sites such as lips, eyelids, breasts and penis for one to six months. Increased fullness, volume, contour or the effect of enlarging, expanding, augmenting, enhancing, firming, pouting, plumping or elongating after topical application was measured or determined by clinical as well as photographic evaluations. One of the measurements for breast enlargement or augmentation was by the size of brassiere cup. After topical application of the active ingredient, the subject would feel fullness or greater tightness of their treated breast with increased volume and contour, and there was a need to change and increase the size of the brassiere cup. Thus the enlargement or augmentation of the breast was determined by clinical as well as the increased size of brassiere cup.
A subject, applied topically twice daily gluconolactone 15% lotion to their right breast for 3 months. […] At this time, they began treating both breasts. […]

[1] = Banana peel air oxidation test (antioxidant property); conditions: 0.1 M, 5 ml, room temperature
Excerpt: (§1) An antioxidant can be defined as a substance capable of preventing or inhibiting oxidation. The antioxidant property can be readily determined by using any one of the following test methods: prevention or retardation of air oxidation of (a) anthralin, (b) hydroquinone, or (c) banana peel. A freshly prepared anthralin solution or cream is bright yellow, and an air oxidized one is brownish or black. A hydroquinone solution or cream is colorless or white color, and an air oxidized one is brownish or black. A freshly peeled banana peel is light yellow in color and an oxidized one ranges in color from tan, dark tan, brown to brownish black.

[2] = Antioxidant screen tests: air oxidation of anthralin and hydroquinone
Excerpt: as §1

penis = experiment: Direct augmentation of penis, penile circumference by tape measure; format: in vivo, human; conditions: 20% solution two to three times daily for six weeks, person
Protocol: The plumping, pouting or firming effects on lips and eyelids by topical application of an hydroxycarboxylic acid, N-acyl-aldosamine, N-acylamino acid or related compound was determined by clinical as well as photographic evaluation. The elongation or expanding effect of penis was determined by direct measurement of penis before and after once or twice daily topical application of an hydroxycarboxylic acid, N-acyl-aldosamine, N-acylamino acid or related compound. • (C) Antioxidants
One test on direct augmentation of penis was carried out as follows. Lactobionic acid 20% solution was prepared by dissolving lactobionic acid 20 g in water 50 ml and propylene glycol 30 ml. A subject, volunteered to test an active ingredient of the present invention to enhance penile enlargement. Each morning for one week prior to treatment penile circumference was measured. Measurements were made with a cloth tailor's tape measure. Penile circumference of the glans region, which included the covering foreskin, ranged from 9.5 cm to 10.5 cm. The above lactobionic acid 20% solution was topically applied two to three times daily on the glans penis including the covering foreskin region for six weeks. Morning measurements were again made daily for one week after treatment was stopped. Penile circumference ranged from 11.5 cm to 13 cm after six weeks of topical treatment with 20% lactobionic acid solution.

eyelids, lips, skin = experiment: Plumping or firming of eyelids, lips and skin, clinical and photographic evaluation; format: in vivo, human
Protocol: Standard photographs were taken before and after topical applications of test formulations. Plumping or firming effect was determined by clinical as well as photographic evaluation. It was discovered that hydroxycarboxylic acids, N-acyl-aldosamines, N-acylamino acids and related compounds had substantial effect on plumping or firming the eyelids. Aside from clinical as well as photographic evaluation, eyelids plumping or firming also was determined from the disappearance of certain skin lines on the eyelids skin. When eyelids skin was plumping up, the eyelids skin firmed up or pulled up, and the skin lines became less apparent or disappeared. Therefore, when the skin lines on the eyelids disappeared after topical application of a test formulation, the test substance was judged to have plumping or firming effect on the eyelids. It also was discovered that hydroxycarboxylic acids, N-acyl-aldosamines, N-acylamino acids and related compounds on topical application had firming or plumping up effects on the eyelids skin. […] Increased fullness, volume, contour or the effect of enlarging, expanding, augmenting, enhancing, firming, pouting, plumping or elongating after topical application was measured or determined by clinical as well as photographic evaluations. One of the measurements for breast enlargement or augmentation was by the size of brassiere cup. After topical application of the active ingredient, the subject would feel fullness or greater tightness of their treated breast with increased volume and contour, and there was a need to change and increase the size of the brassiere cup. Thus the enlargement or augmentation of the breast was determined by clinical as well as the increased size of brassiere cup. The plumping, pouting or firming effects on lips and eyelids by topical application of an hydroxycarboxylic acid, N-acyl-aldosamine, N-acylamino acid or related compound was determined by clinical as well as photographic evaluation. The elongation or expanding effect of penis was determined by direct measurement of penis before and after once or twice daily topical application of an hydroxycarboxylic acid, N-acyl-aldosamine, N-acylamino acid or related compound. • (C) Antioxidants

[3] = anthralin, hydroquinone or banana peel air oxidation
[4] = 14% cream twice daily, person, after two months

Question: Which “% Increase Over (summary of increased skin thickness)” value (forearm skin) does the source give for `CC(O)C(=O)O` (racemic) [DL-Lactic Acid, 2-hydroxypropanoic acid] here?
Answer: 17-42%

Question: What does the source list for `O=C(O)C(O)c1ccccc1` (racemic) [DL-Mandelic Acid, 2-henyl-2-hydroxyethanoic acid]?
Answer: % Increase Over (summary of increased skin thickness) (forearm skin): 22-27%; % Increase Over Control (skin thickness) (forearm skin; 30% solution, twice daily on forearm skin, 4 months, control = opposite forearm, one subject): 22% and 27%

Question: For `CC(=O)NC1CCSC1=O` (racemic) [N-Acetyl-DL-homocysteine Thiolactone], which “% Increase Over Control (%) (skin thickness)” value (“% Increase Over Control (%)” below) (forearm skin; 5% lotion, twice daily on forearm skin, 3 weeks, control = opposite forearm, one subject) is on record?
Answer: 13% and 65%

Question: What does the source list for `O=C1O[C@H](CO)[C@@H](O)[C@H](O)[C@H]1O` [D-Gluconolactone]?
Answer: % Increase Over (summary of increased skin thickness) (forearm skin): 7-19%; size of treated right breast (breasts; 15% lotion twice daily, person, after 6 weeks, untreated left breast no change): noticeable increase in the size of their right breast; plumpness and firmness of treated right breast compared to left breast (breasts; 15% lotion twice daily, person, at the end of 3 months): increased in plumpness and firmness; plumpness and firmness of both breasts (breasts; 15% lotion, both breasts treated, at the end of another 3 months (6 month treatment period)): substantially increased in plumpness and firmness

Question: For `O=C(O)CO` [Glycolic Acid, 2-hydroxyethanoic acid], which “% Increase Over (summary of increased skin thickness)” value (forearm skin) is on record?
Answer: 11-43%

Question: With `O=C(O)[C@H](O)[C@@H](O)[C@H](O[C@@H]1O[C@H](CO)[C@H](O)[C@H](O)[C@H]1O)[C@H](O)CO` [Lactobionic Acid, lactobionic acid] as the compound, how does the “% Increase Over (summary of increased skin thickness)” value (forearm skin) read?
Answer: 5-58%

Question: And the “% Increase Over Control (%)” value (forearm skin; Conc. 8%, twice daily on forearm skin, 3 months, control = opposite forearm, subject)?
Answer: 26%

Question: What about the “% Increase Over Control (%)” value (forearm skin; Conc. 20%, twice daily on forearm skin, 4 months, control = opposite forearm, subject) of the same compound?
Answer: 10%

Question: And the “color of fresh banana peels” value ([1]; after 72 hours, control in water dark tan at 24 to 72 hours)?
Answer: changed in color to tan

Question: And the “color of fresh banana peels” value ([1]; period of 24 hours, control in water tan within 6 hours)?
Answer: remained white-yellowish

Question: What about the “antioxidant property by anthralin and hydroquinone test methods” value [2] of the same compound?
Answer: moderate antioxidant

Question: And the “glans penile augmentation and foreskin thickness (in words)” value (penis)?
Answer: glans penile augmentation had occurred, as well as increased thickness of foreskin

Question: Which “skin fullness and plumping” value (eyelids, lips, skin; 20% solution twice daily applied prior to continued glyceric acid 14% cream, same subject, after five weeks) does the source give for `O=C(O)[C@H](O)[C@@H](O)[C@H](O[C@@H]1O[C@H](CO)[C@H](O)[C@H](O)[C@H]1O)[C@H](O)CO` [Maltobionic acid, maltobionic acid] here?
Answer: marked enhancement of skin fullness and plumping

Question: Which “% Increase Over (summary of increased skin thickness)” value (forearm skin) does the source give for `CC(C)(O)C(=O)O` [Methyllactic Acid, 2-methyl-2-hydroxypropanoic acid] here?
Answer: 14-20%

Question: With `CC(=O)N[C@@H](CS)C(=O)O` [N-Acetyl-L-cysteine] as the compound, how does the “antioxidant properties based on the screen tests” value (“antioxidant properties based” for short) [2, 3] read?
Answer: antioxidant substances

Question: What does the source list for `CCC(=O)N[C@H]1C(O)O[C@H](CO)[C@@H](O)[C@@H]1O` (stereo partly drawn) [N-Propanoyl-D-glucosamine]?
Answer: appearance of treated forearm skin when lifted (forearm skin; 10% solution twice daily, at the end of treatment (6 to 9 weeks), untreated forearm still loose and relatively thin): more firm, smooth and plump when lifted; increase in skin thickness of treated forearm (forearm skin; 10% solution twice daily, person one, after 4 weeks, untreated forearm no change): 8%; increase in skin thickness of treated forearm (forearm skin; 10% solution twice daily, person one, after 6 weeks, untreated forearm no change): 23%; increase in skin thickness of treated forearm (forearm skin; 10% solution twice daily, person one, after 9 weeks, untreated forearm no change): 28%; increase in skin thickness of treated forearm (forearm skin; 10% solution twice daily, person two, after 4 weeks, untreated forearm no change): 13%; increase in skin thickness of treated forearm (forearm skin; 10% solution twice daily, person two, after 6 weeks): 27%; increase in skin thickness of treated forearm (forearm skin; 10% solution twice daily, person, after 5 weeks, untreated forearm no change): 19%; increase in skin thickness of treated forearm (forearm skin; 10% solution twice daily, person, after 8 weeks): 33%

Question: Which “effect on skin plumpness or thickness (in words)” value (forearm skin; topical application on forearm skin) does the source give for `O=C(O)c1ccccc1O` [Salicylic Acid, 2-hydroxybenzoic acid, reference compound] here?
Answer: decreased instead of increasing skin thickness

Question: Which lips plumpness (eyelids, lips, skin; [4]) does the source give for `O=C(O)C(O)CO` (stereo not drawn) [glyceric acid, 2,3-dihydroxypropanoic acid] here?
Answer: more plump

Question: And the plumping of skin (eyelids, lips, skin; [4])?
Answer: plumping of skin was detectable

Question: And the “skin of the upper arms appearance” value (eyelids, lips, skin; [4])?
Answer: diminished crepe paper appearance

Question: What about the “upper eyelids droop and fullness” value (eyelids, lips, skin; [4]) of the same compound?
Answer: diminished droop and enhanced fullness

Question: With `O=C1O[C@H]([C@H](O)CO)C(O)=C1O` [isoascorbic acid, D-erythro-hex-2-enonic acidr-lactone] as the compound, how does the “antioxidant properties based” value [2, 3] read?
Answer: antioxidant substances

Question: With `O=C(O)CC(C(=O)O)C(O)C(=O)O` (stereo not drawn) [isocitric acid] as the compound, how does the “antioxidant properties based” value [2] read?
Answer: antioxidant substances

Question: For `O=C(O)CC(O)C(=O)O` (stereo not drawn) [malic acid, 2-hydroxybutane-1,4-dioic acid], which “antioxidant properties based” value [2, 3] is on record?
Answer: antioxidant substances

Question: With `CC1(C)COC(=O)C1O` (stereo not drawn) [pantolactone] as the compound, how does the “antioxidant properties based” value [2, 3] read?
Answer: antioxidant substances

Reference: patent US20050171194A1, “Enlargement of mucocutaneous or cutaneous organs and sites with topical compositions” (priority 2003, published 2005)
